Measurements published in patent US20250170248A1, “SMARCA DEGRADERS AND USES THEREOF” (Kymera Therapeutics, Inc., priority 2021, published 2025).

Legend:
Format in all cases: cell-based
SMARCA2 [1] = biological target: T1, SMARCA2 (Homo sapiens, UniProt P51531); experiment: SMARCA2 Western blot degradation in MV4-11 cells; design: SMARCA2/SMARCA4 protein degradation selectivity in MV4-11 cells; endogenous in cells; host or cells: MV4-11; conditions: for Dmax: MV4-11, MV4-11 cells, read-out: SMARCA2 MSD MV411 degradation 24 h: average Dmax %; for Dmax / DC50: 24 h; for DC50 / Selectivity in MV411: MV4-11 cells; for DC50: read-out: SMARCA2 MSD MV411 degradation 24 h: Mean external-Abs DC50; for Selectivity in MV411: SMARCA2/4 selectivity
T1 sequence (P51531 whole entry): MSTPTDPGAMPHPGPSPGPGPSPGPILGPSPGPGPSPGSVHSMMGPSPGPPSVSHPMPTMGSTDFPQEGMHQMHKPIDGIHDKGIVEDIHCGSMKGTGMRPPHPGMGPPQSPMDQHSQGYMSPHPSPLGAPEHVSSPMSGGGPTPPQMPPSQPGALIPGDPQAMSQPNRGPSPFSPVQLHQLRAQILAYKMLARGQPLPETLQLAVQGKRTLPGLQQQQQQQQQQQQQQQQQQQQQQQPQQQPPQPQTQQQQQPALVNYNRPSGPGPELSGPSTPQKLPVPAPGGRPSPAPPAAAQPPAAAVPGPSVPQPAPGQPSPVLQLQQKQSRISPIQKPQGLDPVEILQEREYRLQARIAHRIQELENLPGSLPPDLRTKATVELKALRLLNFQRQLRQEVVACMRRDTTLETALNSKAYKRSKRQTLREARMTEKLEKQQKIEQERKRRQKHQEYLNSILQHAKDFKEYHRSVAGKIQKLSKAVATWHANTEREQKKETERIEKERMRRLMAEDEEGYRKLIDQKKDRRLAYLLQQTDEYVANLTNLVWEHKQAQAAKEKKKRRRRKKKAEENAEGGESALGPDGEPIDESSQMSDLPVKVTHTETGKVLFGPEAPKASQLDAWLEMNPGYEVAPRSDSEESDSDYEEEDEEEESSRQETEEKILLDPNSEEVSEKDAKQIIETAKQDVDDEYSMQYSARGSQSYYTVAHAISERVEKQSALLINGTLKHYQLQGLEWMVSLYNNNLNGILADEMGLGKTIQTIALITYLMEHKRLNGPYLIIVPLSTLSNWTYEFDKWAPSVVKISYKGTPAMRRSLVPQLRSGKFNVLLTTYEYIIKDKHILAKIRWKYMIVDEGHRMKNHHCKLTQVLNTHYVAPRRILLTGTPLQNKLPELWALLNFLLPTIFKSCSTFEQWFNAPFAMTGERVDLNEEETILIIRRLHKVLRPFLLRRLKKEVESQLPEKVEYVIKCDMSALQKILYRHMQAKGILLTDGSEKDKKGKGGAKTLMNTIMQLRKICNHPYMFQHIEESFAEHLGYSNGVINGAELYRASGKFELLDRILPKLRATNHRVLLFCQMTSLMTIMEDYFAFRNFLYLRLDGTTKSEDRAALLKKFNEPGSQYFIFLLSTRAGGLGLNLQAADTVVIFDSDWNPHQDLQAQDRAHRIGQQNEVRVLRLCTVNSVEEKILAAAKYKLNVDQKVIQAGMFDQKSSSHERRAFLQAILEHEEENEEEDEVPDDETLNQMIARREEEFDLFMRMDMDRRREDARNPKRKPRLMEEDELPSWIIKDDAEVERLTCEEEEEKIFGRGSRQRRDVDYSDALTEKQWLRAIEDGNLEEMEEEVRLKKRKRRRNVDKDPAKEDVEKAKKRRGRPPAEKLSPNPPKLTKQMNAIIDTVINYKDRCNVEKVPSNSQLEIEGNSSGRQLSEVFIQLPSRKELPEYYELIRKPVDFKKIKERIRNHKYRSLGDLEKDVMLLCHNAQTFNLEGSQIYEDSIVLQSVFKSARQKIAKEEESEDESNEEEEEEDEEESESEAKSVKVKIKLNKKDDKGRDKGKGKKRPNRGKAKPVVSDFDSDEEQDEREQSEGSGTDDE

SMARCA4 = biological target: T2, SMARCA4 (Homo sapiens, UniProt P51532); experiment: SMARCA4 Western blot degradation in MV4-11 cells; conditions: 24 h; for Dmax: MV4-11, MV4-11 cells, read-out: SMARCA4 MSD MV411 degradation 24 h: average Dmax %; for DC50: MV4-11 cells, read-out: SMARCA4 MSD MV411 degradation 24 h: Mean external-Abs DC50
T2 construct: SMARCA2/SMARCA4 protein degradation selectivity in MV4-11 cells; endogenous in cells; host or cells: MV4-11
T2 sequence (P51532 whole entry): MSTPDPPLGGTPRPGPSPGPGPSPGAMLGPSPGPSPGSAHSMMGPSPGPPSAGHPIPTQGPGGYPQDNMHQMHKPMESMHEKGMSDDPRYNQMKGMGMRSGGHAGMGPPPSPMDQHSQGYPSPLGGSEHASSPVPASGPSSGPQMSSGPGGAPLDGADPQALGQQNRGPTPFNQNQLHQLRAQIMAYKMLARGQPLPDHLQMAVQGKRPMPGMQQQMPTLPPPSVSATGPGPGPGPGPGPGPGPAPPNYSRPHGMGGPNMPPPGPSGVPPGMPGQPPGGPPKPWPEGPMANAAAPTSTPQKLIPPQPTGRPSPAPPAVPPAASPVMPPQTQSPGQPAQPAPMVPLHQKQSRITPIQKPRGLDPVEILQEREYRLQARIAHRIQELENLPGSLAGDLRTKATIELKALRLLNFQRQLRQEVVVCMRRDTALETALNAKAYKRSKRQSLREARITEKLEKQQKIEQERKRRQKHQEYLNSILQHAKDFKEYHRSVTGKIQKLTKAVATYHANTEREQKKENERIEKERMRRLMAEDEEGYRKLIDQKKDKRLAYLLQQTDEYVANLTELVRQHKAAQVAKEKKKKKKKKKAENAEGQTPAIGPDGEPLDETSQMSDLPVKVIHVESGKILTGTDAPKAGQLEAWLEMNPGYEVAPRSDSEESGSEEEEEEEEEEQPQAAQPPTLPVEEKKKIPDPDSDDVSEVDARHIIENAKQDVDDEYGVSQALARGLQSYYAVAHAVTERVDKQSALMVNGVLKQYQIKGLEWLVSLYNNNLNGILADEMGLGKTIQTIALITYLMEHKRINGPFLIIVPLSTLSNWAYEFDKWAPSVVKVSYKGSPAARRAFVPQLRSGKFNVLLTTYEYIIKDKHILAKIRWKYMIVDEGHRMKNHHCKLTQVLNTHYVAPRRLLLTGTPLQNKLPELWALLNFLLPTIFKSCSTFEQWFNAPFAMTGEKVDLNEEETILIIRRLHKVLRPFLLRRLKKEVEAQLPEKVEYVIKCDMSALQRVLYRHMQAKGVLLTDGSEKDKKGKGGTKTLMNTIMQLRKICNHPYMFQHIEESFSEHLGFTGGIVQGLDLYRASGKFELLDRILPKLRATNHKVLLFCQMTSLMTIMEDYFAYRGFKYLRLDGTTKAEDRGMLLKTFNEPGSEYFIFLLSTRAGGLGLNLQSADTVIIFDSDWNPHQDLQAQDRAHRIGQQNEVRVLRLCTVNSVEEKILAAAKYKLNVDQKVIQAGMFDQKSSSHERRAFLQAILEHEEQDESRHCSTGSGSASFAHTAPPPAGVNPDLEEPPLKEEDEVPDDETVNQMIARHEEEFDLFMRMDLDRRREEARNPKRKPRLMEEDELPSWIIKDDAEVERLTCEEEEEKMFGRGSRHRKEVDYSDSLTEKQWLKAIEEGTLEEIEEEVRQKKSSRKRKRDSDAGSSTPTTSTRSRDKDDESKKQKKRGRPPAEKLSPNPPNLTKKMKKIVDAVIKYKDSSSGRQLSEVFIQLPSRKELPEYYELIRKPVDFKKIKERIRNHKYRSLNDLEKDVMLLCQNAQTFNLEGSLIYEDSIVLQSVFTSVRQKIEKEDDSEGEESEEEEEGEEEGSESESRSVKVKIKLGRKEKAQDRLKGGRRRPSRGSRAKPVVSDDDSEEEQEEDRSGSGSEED
Summary of the method: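 24 h compound exposure, MV4-11; RIPA lysates → SDS-PAGE → NC membrane; anti-SMARCA2/BRM, anti-BRG1, β-actin loading control; LI-COR fluorescence read. DC50 and Dmax at 24 h reported as letter bins.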

SMARCA2 [2] = biological target: T1, SMARCA2; experiment: MSD SMARCA2 degradation in A549 cell line; conditions: 24 h; for Dmax: A549, A549 cells; for DC50: A549 cells, read-out: SMARCA2 MSD A549 degradation 24 h: Average external-Abs DC50
Summary of the method: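 A549 cells treated 24 h with compound, 3-fold series from 1000 nM. Lysates captured on MSD plates and SMARCA2 quantified with anti-SMARCA2 and SULFO-TAG secondary antibodies (electrochemiluminescence). DC50 and Dmax (% degradation at 24 h) reported as letter bins.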

| SMILES | Dmax (SMARCA2 [1]) [%] | DC50 (SMARCA2 [1]) [nM] | Selectivity in MV411 (SMARCA2 [1]) | Dmax (SMARCA4) [%] | DC50 (SMARCA4) [nM] | Dmax (SMARCA2 [2]) [%] | DC50 (SMARCA2 [2]) [nM] |
| --- | --- | --- | --- | --- | --- | --- | --- |
| Cc1ncsc1-c1ccc(CNC(=O)[C@@H]2C[C@@H](O)CN2C(=O)[C@@H](NC(=O)C2(F)CC2)C(C)(C)C)c(O[C@H]2CC[C@H](N3CCC(c4cnc(N5CCc6[nH]c7nnc(-c8ccccc8O)cc7c6[C@H]5C)nc4)CC3)CC2)c1 (single isomer, unassigned) [I-30] | > 90 | < 1 | D (D (<10 fold)) | > 90 | < 1 | > 90 | < 10 |
| C#Cc1ccc(CNC(=O)[C@@H]2C[C@@H](O)CN2C(=O)[C@@H](NC(=O)N2CCN(C[C@H]3CC[C@@H](N4CCC(N5CCc6[nH]c7nnc(-c8ccccc8O)cc7c6[C@H]5C)CC4)CC3)CC2)C(C)(C)C)cc1 [I-193] | < 50 | > 100 | C (C (10-100 fold)) | < 50 | > 100 | 70 to 90 | > 100 |
| C#Cc1ccc([C@H](C)NC(=O)[C@@H]2C[C@@H](O)CN2C(=O)[C@H](c2cc(OCCN3CCN4c5cc(-c6ccccc6O)nnc5NC[C@H]4C3)no2)C(C)C)cc1 (single isomer, unassigned) [I-272] | 50 to 70 | > 100 | C (C (10-100 fold)) | < 50 | > 100 | 50 to 70 | > 100 |
| Cc1ncsc1-c1ccc(CNC(=O)[C@@H]2C[C@@H](O)CN2C(=O)[C@@H](OC(=O)N2CC3(CC(N4CCN(c5cnc(N6CCN7c8cc(-c9ccccc9O)nnc8NC[C@H]7C6)nc5)CC4)C3)C2)C(C)(C)C)cc1 [I-96] | > 90 | < 1 | C (C (10-100 fold)) | > 90 | 1 to 10 | > 90 | < 10 |

The remaining lines, values ahead:

| Dmax (SMARCA2 [1]) [%] | DC50 (SMARCA2 [1]) [nM] | Selectivity in MV411 (SMARCA2 [1]) | Dmax (SMARCA4) [%] | DC50 (SMARCA4) [nM] | Dmax (SMARCA2 [2]) [%] | DC50 (SMARCA2 [2]) [nM] | SMILES |
| --- | --- | --- | --- | --- | --- | --- | --- |
| > 90 | 1 to 10 | C (C (10-100 fold)) | > 90 | 10 to 100 | > 90 | 10 to 50 | C#Cc1ccc(CNC(=O)[C@@H]2C[C@@H](O)CN2C(=O)[C@@H](NC(=O)[C@H]2CCC3(CC2)C[C@H](N2CCC(c4cnc(N5CCN6c7cc(-c8ccccc8O)nnc7NC[C@H]6C5)nc4)CC2)C3)C(C)(C)C)c(OCCCN(C)C)c1 (single isomer, unassigned) [I-129] |
| 50 to 70 | > 100 | D (D (<10 fold)) | < 50 | > 100 | 70 to 90 | > 100 | C#Cc1ccc2c(c1)OCC[C@H]2NC(=O)[C@@H]1C[C@@H](O)CN1C(=O)[C@@H](NC(=O)N1CC2(CC(N3CCC(c4cnc(N5CCc6[nH]c7nnc(-c8ccccc8O)cc7c6[C@H]5C)nc4)CC3)C2)C1)C(C)(C)C (single isomer, unassigned) [I-236] |
| 70 to 90 | 1 to 10 | C (C (10-100 fold)) | > 90 | > 100 | > 90 | 10 to 50 | C#Cc1c(F)cc(CNC(=O)[C@@H]2C[C@@H](O)CN2C(=O)[C@@H](NC(=O)N2CC3(CC(N4CCC(c5cnc(N6CCc7[nH]c8nnc(-c9ccccc9O)cc8c7[C@H]6C)nc5)CC4)C3)C2)C(C)(C)C)cc1F [I-402] |
| 50 to 70 | 10 to 100 | B (B (>100-500 fold)) | < 50 | > 100 | > 90 | > 100 | C#Cc1ccc(CNC(=O)[C@@H]2C[C@@H](O)CN2C(=O)[C@@H](NC(=O)N2CC3(CC(N4CCC(N5CCC(N6CCc7[nH]c8nnc(-c9ccccc9O)cc8c7[C@H]6C)CC5)CC4)C3)C2)C(C)(C)C)c(F)c1 [I-181] |
| > 90 | 1 to 10 | C (C (10-100 fold)) | > 90 | 10 to 100 | > 90 | 10 to 50 | C#Cc1ccc(CNC(=O)[C@@H]2C[C@@H](O)CN2C(=O)[C@@H](NC(=O)N2CC3(CC(CCN4CCC(c5cnc(N6CCc7[nH]c8nnc(-c9ccccc9O)cc8c7[C@H]6C)nc5)CC4)C3)C2)C(C)(C)C)cc1 [I-416] |
